Laboratory results as given in the NIST ThermoML archive (doi:10.1016/j.jct.2019.06.026).
± gives the expanded uncertainty stated by the source. Each block holds one compound with its values, some of them ahead of it.

Conditions: Liquid, Ebulliometric method (Recirculating still)

vapor or sublimation pressure (381.95 K): 101.3 ± 3.6 kPa
Compound: OCC(F)(F)C(F)F [2,2,3,3-tetrafluoro-1-propanol]

vapor or sublimation pressure (471.2 K): 101.3 ± 3.6 kPa
Compound: CNC=O [N-methylformamide]

vapor or sublimation pressure (476.05 K): 101.3 ± 3.6 kPa
Compound: CN1CCCC1=O [N-methylpyrrolidone]

vapor or sublimation pressure (426.05 K): 101.3 ± 3.6 kPa
Compound: CN(C)C=O [dimethylformamide]
